# Tested on: SARS-CoV-2 Delta variant in Vero E6 cells
# Assay: microbe, parasite or virus in culture
# Type: cell-based
smiles,measurement,setting,value
CC(c1ccc(-n2cncn2)cc1)N(C)C(=O)CCC(=O)N1CCC(c2ccccc2)=N1 (centres unmarked) [compound 36],EC50,"Severe acute respiratory syndrome coronavirus 2, Vero C1008, read-out: EC50 (inhibition of Delta variant-induced CPE)",5.77 µM
same,inhibition at 33 µM,"Severe acute respiratory syndrome coronavirus 2, Vero C1008, 33 μM, read-out: maximum inhibition of CPE",78%

# Source: article PMC12177760, “In Silico Discovery of a Novel Antiviral Scaffold for SARS-CoV‑2 Targeting the Spike Glycoprotein through the Fatty Acid Binding Pocket” (ACS Omega, 2025)
